Assay results published in patent US20040209914A1, “Aromatic sulfone hydroxamic acids and their use as protease inhibitors” (priority 2000, published 2004).

Legend:
Assay in all cases: biochemical
Recombinant human MMP-1 = molecular target: T1, Recombinant human MMP-1 (Homo sapiens, UniProt P03956); details: fluorogenic MCA-peptide substrate, pH 7.5, room temperature
T1 construct: made in house; host or cells: transfected HT-1080 cells
T1 sequence (P03956 100-469): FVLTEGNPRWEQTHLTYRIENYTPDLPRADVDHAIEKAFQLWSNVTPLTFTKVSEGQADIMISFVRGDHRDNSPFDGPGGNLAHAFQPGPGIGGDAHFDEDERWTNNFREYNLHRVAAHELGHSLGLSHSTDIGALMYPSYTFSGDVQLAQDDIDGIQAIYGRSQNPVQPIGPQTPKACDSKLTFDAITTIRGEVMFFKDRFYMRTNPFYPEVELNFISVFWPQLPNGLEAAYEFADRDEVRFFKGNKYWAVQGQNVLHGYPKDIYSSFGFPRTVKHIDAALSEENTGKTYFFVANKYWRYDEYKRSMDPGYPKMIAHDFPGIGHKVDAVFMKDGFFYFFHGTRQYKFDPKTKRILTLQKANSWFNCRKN
Description: (§1) Recombinant human MMP-1, MMP-2, MMP-9, MMP-13, and were used in this assay. These enzymes were prepared in the Assignee's es following usual laboratory procedures. Specifics for preparing and e enzymes can be found in the scientific literature describing these See, e.g., Enzyme Nomenclature (Academic Press, San Diego, Calif., d the citations therein).
The MMP-1 was obtained from MMP-1 expressing transfected HT-1080 cells provided by Dr. Harold Welgus of Washington University in St. Louis, Mo. The MMP-1 was activated using 4-aminophenylmercuric acetate (APMA), and then purified over a hydroxamic acid column.
(§2) The enzyme substrate was a methoxycoumarin-containing polypeptide having the following sequence:
(§3) MCA-ProLeuGlyLeuDpaAlaArgNH2
(§4) Here, “MCA” is methoxycoumarin and “Dpa” is 3-(2,4-dinitrophenyl)-L-2,3-diaminopropionyl alanine.
(§5) These solutions were then compared to a control (which contained equal amount of DMSO/buffer solution, but no hydroxamate compound) using Microfluor™ White Plates (Dynatech, Chantilly, Va.). Specifically, The MMPs were activated with APMA or trypsin. […] The control likewise was incubated at room temperature in separate plates with the MMP and 4 uM of the MMP substrate. […] Inhibition was measured as a reduction in fluorescent intensity as a function of inhibitor concentration using a Perkin Elmer (Norwalk, Conn.) L550 plate reader. The IC50's were then calculated from these measurements.

Recombinant human MMP-2 = molecular target: T2, Recombinant human MMP-2 (Homo sapiens, UniProt P08253); details: fluorogenic MCA-peptide substrate, pH 7.5, room temperature; read-out: MMP-2 IC50
T2 construct: made in house
T2 sequence (P08253 110-660): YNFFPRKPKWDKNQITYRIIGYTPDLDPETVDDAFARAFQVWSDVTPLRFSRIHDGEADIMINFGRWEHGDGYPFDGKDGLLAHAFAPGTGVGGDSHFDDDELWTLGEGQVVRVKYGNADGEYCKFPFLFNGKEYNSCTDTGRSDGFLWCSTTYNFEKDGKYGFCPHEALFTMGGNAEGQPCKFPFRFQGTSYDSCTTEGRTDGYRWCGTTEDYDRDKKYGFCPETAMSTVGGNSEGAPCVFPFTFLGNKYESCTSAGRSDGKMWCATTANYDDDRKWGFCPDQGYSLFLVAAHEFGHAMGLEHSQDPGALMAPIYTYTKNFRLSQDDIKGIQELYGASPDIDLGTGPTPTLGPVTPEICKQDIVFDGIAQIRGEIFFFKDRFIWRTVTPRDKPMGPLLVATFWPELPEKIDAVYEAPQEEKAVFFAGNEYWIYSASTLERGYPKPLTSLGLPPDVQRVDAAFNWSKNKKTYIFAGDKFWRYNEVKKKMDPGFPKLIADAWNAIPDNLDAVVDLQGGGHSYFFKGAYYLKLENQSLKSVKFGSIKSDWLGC
Description: as §1
The MMP-2 was obtained from MMP-2 expressing transfected cells provided by Dr. Gregory Goldberg of Washington University.
as §2, §3, §4, §5

Recombinant human MMP-13 = molecular target: T3, Recombinant human MMP-13 (Homo sapiens, UniProt P45452); details: fluorogenic MCA-peptide substrate, pH 7.5, room temperature; read-out: MMP-13 IC50
T3 construct: made in house; host or cells: baculovirus / insect cells
Description: as §1
The expressed proenzyme was first purified over a heparin agarose column, and then over a chelating zinc chloride column. The proenzyme was then activated by APMA for use in the assay.
as §2, §3, §4, §5

SMILES	IC50 (Recombinant human MMP-1)	IC50 (Recombinant human MMP-2)	IC50 (Recombinant human MMP-13)
O=C(NO)C1(S(=O)(=O)c2ccc(N3CCC(c4ccc(F)cc4)CC3)cc2)CCN(CC2CC2)CC1 [Example 263]	> 10 µM	2.6 nM	1.5 nM
O=C(c1ccc(CC2CCCCC2)cc1)C1CCN(c2ccc(S(=O)(=O)C3(C(=O)NO)CCOCC3)cc2)CC1 [Example 380]	> 10 µM	2290 nM	9.7 nM
CCN1CCC(C(=O)NO)(S(=O)(=O)c2ccc(N3CCC(C(=O)c4ccc(CC5CCC5)cc4)CC3)cc2)CC1 [Example 232]	> 10 µM	624 nM	1.3 nM
C#CCN1CCC(C(=O)NO)(S(=O)(=O)c2ccc(N3CCC(C(=O)c4ccc(OC(C)C)c(C)c4)CC3)cc2)CC1 [Example 162]	> 10 µM	495 nM	2.7 nM
COc1ccc(C(=O)C2CCN(c3ccc(S(=O)(=O)C4(C(=O)NO)CCN(CC5CC5)CC4)cc3)CC2)cc1 [Example 188]	> 10 µM	250 nM	2 nM
CCC(C)Cc1ccc(C(=O)C2CCN(c3ccc(S(=O)(=O)C4(C(=O)NO)CCN(CCOC)CC4)cc3)CC2)cc1 (stereo not drawn) [Example 205]	> 10 µM	412 nM	< 0.1 nM
CCCc1ccc(C(=O)C2CCN(c3ccc(S(=O)(=O)C4(C(=O)NO)CCN(CCOC)CC4)cc3)CC2)cc1 [Example 120]	> 10 µM	126 nM	0.85 nM
C#CCN1CCC(C(=O)NO)(S(=O)(=O)c2ccc(N3CCC(C(=O)c4ccc(OC)cc4)CC3)cc2)CC1 [Example 151]	> 10 µM	128 nM	1.3 nM
COCCN1CCC(C(=O)NO)(S(=O)(=O)c2ccc(N3CCC(C(=O)c4ccc(CCC(C)C)cc4)CC3)cc2)CC1 [Example 246]	> 10 µM	2710 nM	1 nM
O=C(c1ccc(CCC2CCCC2)cc1)C1CCN(c2ccc(S(=O)(=O)C3(C(=O)NO)CCN(C4CC4)CC3)cc2)CC1 [Example 199]	> 10 µM	3390 nM	11.7 nM
C=CCN1CCC(C(=O)NO)(S(=O)(=O)c2ccc(N3CCC(C(=O)c4ccc(N(C)CC)cc4)CC3)cc2)CC1 [Example 181]	> 10 µM	936 nM	2.3 nM
COCCN1CCC(C(=O)NO)(S(=O)(=O)c2ccc(N3CCC(C(=O)c4ccc(OC(C)C)c(C)c4)CC3)cc2)CC1 [Example 191]	> 10 µM	2290 nM	3 nM
Cc1ccc(C(=O)C2CCN(c3ccc(S(=O)(=O)C4(C(=O)NO)CCN(CC5CC5)CC4)cc3)CC2)cc1 [Example 210]	> 10 µM	13.1 nM	1.1 nM
O=C(c1ccc2ccccc2c1)C1CCN(c2ccc(S(=O)(=O)C3(C(=O)NO)CCN(CC4CC4)CC3)cc2)CC1 [Example 187]	> 10 µM	242 nM	2.7 nM
COCCN1CCC(C(=O)NO)(S(=O)(=O)c2ccc(N3CCC(C(=O)c4ccc(Cl)c(C)c4)CC3)cc2)CC1 [Example 211]	> 10 µM	122 nM	1.2 nM
COCCc1sc(CC(=O)C2CCN(c3ccc(S(=O)(=O)C4(C(=O)NO)CCOCC4)cc3)CC2)nc1C [Example 374]	> 10 µM	970 nM	5.6 nM
O=C(c1ccc(CC2CCC2)cc1)C1CCN(c2ccc(S(=O)(=O)C3(C(=O)NO)CCN(C4CC4)CC3)cc2)CC1 [Example 196]	> 10 µM	750 nM	1 nM
